Measured values taken from PubChem BioAssay (NCI).
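Tested at 5 concentrations; 48 h exposure; 96-well plates; endpoints linearly interpolated, else capped at highest concentration. GI50 is the concentration that inhibits growth by half. TGI: concentration producing complete growth inhibition.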

How the values were obtained:
Assay in all cases: growth of human tumour cells (NCI), 48 h
SK-MEL-28 melanoma = test system: SK-MEL-28 melanoma
UACC-257 melanoma = test system: UACC-257 melanoma
SF-539 CNS = test system: SF-539 CNS
SF-295 CNS = test system: SF-295 CNS
T-47D breast = test system: T-47D breast
K-562 leukemia = test system: K-562 leukemia
M14 melanoma = test system: M14 melanoma
SNB-19 CNS = test system: SNB-19 CNS
PC-3 prostate = test system: PC-3 prostate
HT29 colon = test system: HT29 colon
HOP-62 NSCLC = test system: HOP-62 NSCLC
NCI-H522 lung = test system: NCI-H522 lung
U251 CNS = test system: U251 CNS
SF-268 CNS = test system: SF-268 CNS
UO-31 renal = test system: UO-31 renal
MOLT-4 leukemia = test system: MOLT-4 leukemia
OVCAR-8 ovarian = test system: OVCAR-8 ovarian
SK-OV-3 ovarian = test system: SK-OV-3 ovarian
CAKI-1 renal = test system: CAKI-1 renal
HOP-92 NSCLC = test system: HOP-92 NSCLC
MCF7 breast = test system: MCF7 breast
DU-145 prostate = test system: DU-145 prostate
EKVX NSCLC = test system: EKVX NSCLC
NCI-H23 lung = test system: NCI-H23 lung
COLO 205 colon = test system: COLO 205 colon
OVCAR-3 ovarian = test system: OVCAR-3 ovarian
UACC-62 melanoma = test system: UACC-62 melanoma
SW-620 colon = test system: SW-620 colon
NCI-H226 lung = test system: NCI-H226 lung
786-0 renal = test system: 786-0 renal
HCT-15 colon = test system: HCT-15 colon
HS 578T breast = test system: HS 578T breast
SN12C renal = test system: SN12C renal
RXF 393 renal = test system: RXF 393 renal
TK-10 renal = test system: TK-10 renal
BT-549 breast = test system: BT-549 breast
KM12 colon = test system: KM12 colon
HCT-116 colon = test system: HCT-116 colon
A498 renal = test system: A498 renal
OVCAR-4 ovarian = test system: OVCAR-4 ovarian
HCC-2998 colon = test system: HCC-2998 colon
HL-60(TB) leukemia = test system: HL-60(TB) leukemia
LOX IMVI melanoma = test system: LOX IMVI melanoma
RPMI-8226 leukemia = test system: RPMI-8226 leukemia
IGROV1 ovarian = test system: IGROV1 ovarian
NCI-H460 lung = test system: NCI-H460 lung
ACHN renal = test system: ACHN renal
SNB-75 CNS = test system: SNB-75 CNS
SK-MEL-2 melanoma = test system: SK-MEL-2 melanoma
OVCAR-5 ovarian = test system: OVCAR-5 ovarian
SK-MEL-5 melanoma = test system: SK-MEL-5 melanoma
A549 NSCLC = test system: A549 NSCLC
MDA-MB-231 breast = test system: MDA-MB-231 breast
CCRF-CEM leukemia = test system: CCRF-CEM leukemia
SR leukemia = test system: SR leukemia

`COc1ccc(S(=O)(=O)Nc2cc(/C=C\c3cc(OC)c(OC)c(OC)c3)cc(OC)c2OC)cc1OC` gave a GI50 (SK-MEL-28 melanoma) of 3.27 µM, a TGI (SK-MEL-28 melanoma) of 61.3 µM and a GI50 (UACC-257 melanoma) of 27 µM. For the same compound, the TGI (UACC-257 melanoma) was over 100 µM, the GI50 (SF-539 CNS) was 0.518 µM and the TGI (SF-539 CNS) was 28.6 µM. The GI50 (SF-295 CNS) was 0.47 µM, the TGI (SF-295 CNS) was 55.6 µM and the GI50 (T-47D breast) was 27.2 µM. The TGI (T-47D breast) was over 100 µM, the GI50 (K-562 leukemia) was 0.425 µM and the TGI (K-562 leukemia) was over 100 µM. For the same compound, the GI50 (M14 melanoma) was 0.419 µM, the TGI (M14 melanoma) was over 100 µM and the GI50 (SNB-19 CNS) was 1.11 µM. The TGI (SNB-19 CNS) was over 100 µM, the GI50 (PC-3 prostate) was 0.374 µM and the TGI (PC-3 prostate) was over 100 µM. The GI50 (HT29 colon) was 0.485 µM, the TGI (HT29 colon) was over 100 µM and the GI50 (HOP-62 NSCLC) was 17.6 µM. For the same compound, the TGI (HOP-62 NSCLC) was over 100 µM, the GI50 (NCI-H522 lung) was 0.369 µM and the TGI (NCI-H522 lung) was over 100 µM. The GI50 (U251 CNS) was 0.681 µM, the TGI (U251 CNS) was over 100 µM and the GI50 (SF-268 CNS) was 20.8 µM. For the same compound, the TGI (SF-268 CNS) was over 100 µM, the GI50 (UO-31 renal) was 1.59 µM and the TGI (UO-31 renal) was over 100 µM. It also gave a GI50 (MOLT-4 leukemia) of 0.702 µM, a TGI (MOLT-4 leukemia) of over 100 µM and a GI50 (OVCAR-8 ovarian) of 4.08 µM. For the same compound, the TGI (OVCAR-8 ovarian) was over 100 µM, the GI50 (SK-OV-3 ovarian) was 11.4 µM and the TGI (SK-OV-3 ovarian) was over 100 µM. For the same compound, the GI50 (CAKI-1 renal) was 0.813 µM, the TGI (CAKI-1 renal) was over 100 µM and the GI50 (HOP-92 NSCLC) was 0.207 µM. It also gave a TGI (HOP-92 NSCLC) of 67.5 µM, a GI50 (MCF7 breast) of 0.484 µM and a TGI (MCF7 breast) of over 100 µM. It also gave a GI50 (DU-145 prostate) of 0.841 µM, a TGI (DU-145 prostate) of over 100 µM and a GI50 (EKVX NSCLC) of 3.6 µM. The TGI (EKVX NSCLC) was over 100 µM, the GI50 (NCI-H23 lung) was 3.31 µM and the TGI (NCI-H23 lung) was over 100 µM. The GI50 (COLO 205 colon) was 1.28 µM, the TGI (COLO 205 colon) was over 100 µM and the GI50 (OVCAR-3 ovarian) was 0.418 µM. It also gave a TGI (OVCAR-3 ovarian) of over 100 µM, a GI50 (UACC-62 melanoma) of 0.494 µM and a TGI (UACC-62 melanoma) of over 100 µM. The GI50 (SW-620 colon) was 0.478 µM, the TGI (SW-620 colon) was over 100 µM and the GI50 (NCI-H226 lung) was 1.87 µM. It also gave a TGI (NCI-H226 lung) of over 100 µM, a GI50 (786-0 renal) of 0.444 µM and a TGI (786-0 renal) of over 100 µM. For the same compound, the GI50 (HCT-15 colon) was 0.671 µM, the TGI (HCT-15 colon) was over 100 µM and the GI50 (HS 578T breast) was 3.42 µM. The TGI (HS 578T breast) was over 100 µM, the GI50 (SN12C renal) was 1.18 µM and the TGI (SN12C renal) was over 100 µM. It also gave a GI50 (RXF 393 renal) of 0.683 µM, a TGI (RXF 393 renal) of 4.55 µM and a GI50 (TK-10 renal) of 10.3 µM. It also gave a TGI (TK-10 renal) of over 100 µM, a GI50 (BT-549 breast) of 0.664 µM and a TGI (BT-549 breast) of 90.1 µM. For the same compound, the GI50 (KM12 colon) was 0.639 µM, the TGI (KM12 colon) was over 100 µM and the GI50 (HCT-116 colon) was 0.469 µM. For the same compound, the TGI (HCT-116 colon) was over 100 µM, the GI50 (A498 renal) was 0.154 µM and the TGI (A498 renal) was 0.906 µM. For the same compound, the GI50 (OVCAR-4 ovarian) was 3.12 µM, the TGI (OVCAR-4 ovarian) was over 100 µM and the GI50 (HCC-2998 colon) was 1.83 µM. It also gave a TGI (HCC-2998 colon) of over 100 µM, a GI50 (HL-60(TB) leukemia) of 0.37 µM and a TGI (HL-60(TB) leukemia) of over 100 µM. It also gave a GI50 (LOX IMVI melanoma) of 0.472 µM, a TGI (LOX IMVI melanoma) of over 100 µM and a GI50 (RPMI-8226 leukemia) of 0.567 µM. The TGI (RPMI-8226 leukemia) was over 100 µM, the GI50 (IGROV1 ovarian) was 4.58 µM and the TGI (IGROV1 ovarian) was over 100 µM. It also gave a GI50 (NCI-H460 lung) of 0.399 µM, a TGI (NCI-H460 lung) of over 100 µM and a GI50 (ACHN renal) of 0.928 µM. The TGI (ACHN renal) was over 100 µM, the GI50 (SNB-75 CNS) was 0.404 µM and the TGI (SNB-75 CNS) was over 100 µM. It also gave a GI50 (SK-MEL-2 melanoma) of 5.29 µM, a TGI (SK-MEL-2 melanoma) of over 100 µM and a GI50 (OVCAR-5 ovarian) of 6.57 µM. The TGI (OVCAR-5 ovarian) was over 100 µM, the GI50 (SK-MEL-5 melanoma) was 0.488 µM and the TGI (SK-MEL-5 melanoma) was 13.1 µM. It also gave a GI50 (A549 NSCLC) of 1.31 µM, a TGI (A549 NSCLC) of over 100 µM and a GI50 (MDA-MB-231 breast) of 2.43 µM. The TGI (MDA-MB-231 breast) was over 100 µM, the GI50 (CCRF-CEM leukemia) was 0.349 µM and the TGI (CCRF-CEM leukemia) was over 100 µM. The GI50 (SR leukemia) was 0.704 µM and the TGI (SR leukemia) was over 100 µM.
